Laboratory results published in patent publication US5591714A, “Derivatives of A82846” (priority 1994, dated 1997).
≈ marks a conversion by molar mass, not a printed value.

How the values were obtained:
Escherichia coli EC14 = assay: MIC, standard agar-dilution assay; type: cell-based
Experimental: (§1) The formula I compounds have in vitro and in vivo activity against Gram-positive pathogenic bacteria. The MIC's were determined using a standard agar-dilution assays.

Escherichia coli N10 = assay: MIC, standard agar-dilution assay; type: cell-based
Experimental: as §1

Escherichia coli TEM = assay: MIC, standard agar-dilution assay; type: cell-based
Experimental: as §1

[1] = system: Haemophilus influenzae 76; assay: MIC, standard agar-dilution assay; type: cell-based
Experimental: as §1

[2] = system: Haemophilus influenzae C.L.; assay: MIC, standard agar-dilution assay; type: cell-based
Experimental: as §1

[3] = system: Klebsiella pneumoniae KAE; assay: MIC, standard agar-dilution assay; type: cell-based
Experimental: as §1

[4] = system: Klebsiella pneumoniae X26; assay: MIC, standard agar-dilution assay; type: cell-based
Experimental: as §1

[5] = system: Klebsiella pneumoniae X68; assay: MIC, standard agar-dilution assay; type: cell-based
Experimental: as §1

[6] = system: Staphylococcus aureus NRRL X1.1; assay: MIC, standard agar-dilution assay; type: cell-based
Experimental: as §1

[7] = system: Staphylococcus aureus V41; assay: MIC, standard agar-dilution assay; type: cell-based
Experimental: as §1

[8] = system: Staphylococcus aureus X400; assay: MIC, standard agar-dilution assay; type: cell-based
Experimental: as §1

[9] = system: Staphylococcus epidermidis 222; assay: MIC, standard agar-dilution assay; type: cell-based
Experimental: as §1

[10] = system: Staphylococcus epidermidis EPI270; assay: MIC, standard agar-dilution assay; type: cell-based
Experimental: as §1

[11] = system: Streptococcus pyogenes C203; assay: MIC, standard agar-dilution assay; type: cell-based
Experimental: as §1

[12] = system: Staphylococcus aureus S13E; type: cell-based
Experimental: as §1

[13] = system: Streptococcus pneumoniae Park 1; type: cell-based
Experimental: as §1

Enterococcus faecium X66 = assay: MIC, standard agar-dilution assay; type: cell-based
Experimental: as §1
^b Formerly Streptococcus faecium X66

[14] = system: Enterococcus faecalis 2041; assay: MIC, standard agar-dilution assay; type: cell-based
Experimental: as §1
^c Formerly Streptococcus faecalis 2041

Staphylococcus aureus = assay: In vivo activity, experimentally infected mice (ED50); conditions: Staphylococcus aureus infection; doses administered subcutaneously to mice 1 and 4 hours postinfection
Streptococcus pyogenes = assay: as above; conditions: Streptococcus pyogenes infection; doses administered subcutaneously to mice 1 and 4 hours postinfection
Streptococcus pneumoniae = assay: as above; conditions: Streptococcus pneumoniae infection; doses administered subcutaneously to mice 1 and 4 hours postinfection

Structure (SMILES) | MIC (Escherichia coli EC14) [µg/mL] | MIC (Escherichia coli N10) [µg/mL] | MIC (Escherichia coli TEM) [µg/mL] | MIC [1] [µg/mL] | MIC [2] [µg/mL] | MIC [3] [µg/mL] | MIC [4] [µg/mL] | MIC [5] [µg/mL] | MIC [6] | MIC [7] | MIC [8] | MIC [9] | MIC [10] | MIC [11] | MIC [12] | MIC [13] | MIC (Enterococcus faecium X66) | MIC [14] | ED50 (Staphylococcus aureus) [mg/kg/2] | ED50 (Streptococcus pyogenes) [mg/kg/2] | further results
CCCCCN[C@@]1(C)C[C@H](O[C@H]2[C@H](Oc3c4cc5cc3Oc3ccc(cc3Cl)[C@@H](O[C@H]3C[C@](C)(N)[C@@H](O)[C@H](C)O3)[C@@H]3NC(=O)[C@H](NC(=O)[C@@H]5NC(=O)[C@H](CC(N)=O)NC(=O)[C@H](NC(=O)[C@@H](CC(C)C)NC)[C@H](O)c5ccc(c(Cl)c5)O4)c4ccc(O)c(c4)-c4c(O)cc(O)cc4[C@@H](C(=O)O)NC3=O)O[C@H](CO)[C@@H](O)[C@@H]2O)O[C@@H](C)[C@@H]1O [Compound 34] | > 128 | > 128 | > 128 | > 128 | > 128 | > 128 | > 128 | > 128 | .5 µg/mL (≈ 0.301 µM) | .5 µg/mL (≈ 0.301 µM) | 1 µg/mL (≈ 0.601 µM) | .5 µg/mL (≈ 0.301 µM) | 2 µg/mL (≈ 1.2 µM) | .5 µg/mL (≈ 0.301 µM) | .5 µg/mL (≈ 0.301 µM) | .5 µg/mL (≈ 0.301 µM) | .5 µg/mL (≈ 0.301 µM) | 1 µg/mL (≈ 0.601 µM) | 0.77 | 0.44 | ED50 (Streptococcus pneumoniae): 0.44 mg/kg/2
CNC(CC(C)C)C(=O)NC1C(=O)NC(CC(N)=O)C(=O)NC2C(=O)NC3C(=O)NC(C(=O)NC(C(=O)O)c4cc(O)cc(O)c4-c4cc3ccc4O)C(OC3CC(C)(N)C(O)C(C)O3)c3ccc(c(Cl)c3)Oc3cc2cc(c3OC2OC(CO)C(O)C(O)C2OC2CC(C)(NCc3ccccc3)C(O)C(C)O2)Oc2ccc(cc2Cl)C1O (stereo not drawn) [Compound 51] | > 128 | > 128 | > 128 | > 128 | > 128 | > 128 | > 128 | > 128 | .25 µg/mL (≈ 0.149 µM) | .5 µg/mL (≈ 0.297 µM) | .5 µg/mL (≈ 0.297 µM) | .5 µg/mL (≈ 0.297 µM) | 1 µg/mL (≈ 0.594 µM) | .25 µg/mL (≈ 0.149 µM) | .25 µg/mL (≈ 0.149 µM) | .125 µg/mL (≈ 0.0743 µM) | .25 µg/mL (≈ 0.149 µM) | .5 µg/mL (≈ 0.297 µM) | 0.34 | 0.16 | ED50 (Streptococcus pneumoniae): 0.35 mg/kg/2
CNC(CC(C)C)C(=O)NC1C(=O)NC(CC(N)=O)C(=O)NC2C(=O)NC3C(=O)NC(C(=O)NC(C(=O)O)c4cc(O)cc(O)c4-c4cc3ccc4O)C(OC3CC(C)(N)C(O)C(C)O3)c3ccc(c(Cl)c3)Oc3cc2cc(c3OC2OC(CO)C(O)C(O)C2OC2CC(C)(NCc3ccccc3Cl)C(O)C(C)O2)Oc2ccc(cc2Cl)C1O (stereo not drawn) [Compound 62] | > 128 | > 128 | > 128 | > 128 | > 128 | > 128 | > 128 | > 128 | .5 µg/mL (≈ 0.291 µM) | .5 µg/mL (≈ 0.291 µM) | 1 µg/mL (≈ 0.582 µM) | .5 µg/mL (≈ 0.291 µM) | 1 µg/mL (≈ 0.582 µM) | .125 µg/mL (≈ 0.0728 µM) | 1 µg/mL (≈ 0.582 µM) | .125 µg/mL (≈ 0.0728 µM) | .25 µg/mL (≈ 0.146 µM) | .5 µg/mL (≈ 0.291 µM) | 0.77 | 0.20 | ED50 (Streptococcus pneumoniae): 0.17 mg/kg/2
CNC(CC(C)C)C(=O)NC1C(=O)NC(CC(N)=O)C(=O)NC2C(=O)NC3C(=O)NC(C(=O)NC(C(=O)O)c4cc(O)cc(O)c4-c4cc3ccc4O)C(OC3CC(C)(N)C(O)C(C)O3)c3ccc(c(Cl)c3)Oc3cc2cc(c3OC2OC(CO)C(O)C(O)C2OC2CC(C)(NCc3cccc(Cl)c3)C(O)C(C)O2)Oc2ccc(cc2Cl)C1O (stereo not drawn) [Compound 64] | > 128 | > 128 | > 128 | > 128 | > 128 | > 128 | > 128 | > 128 | .25 µg/mL (≈ 0.146 µM) | .25 µg/mL (≈ 0.146 µM) | .5 µg/mL (≈ 0.291 µM) | .5 µg/mL (≈ 0.291 µM) | .25 µg/mL (≈ 0.146 µM) | .06 µg/mL (≈ 0.0349 µM) | .5 µg/mL (≈ 0.291 µM) | .25 µg/mL (≈ 0.146 µM) | .25 µg/mL (≈ 0.146 µM) | .25 µg/mL (≈ 0.146 µM) | 0.55 | 0.94 | ED50 (Streptococcus pneumoniae): 0.10 mg/kg/2
CNC(CC(C)C)C(=O)NC1C(=O)NC(CC(N)=O)C(=O)NC2C(=O)NC3C(=O)NC(C(=O)NC(C(=O)O)c4cc(O)cc(O)c4-c4cc3ccc4O)C(OC3CC(C)(NCc4ccccc4)C(O)C(C)O3)c3ccc(cc3)Oc3cc2cc(c3OC2OC(CO)C(O)C(O)C2O)Oc2ccc(cc2Cl)C1O (stereo not drawn) [Compound 70] | > 128 | > 128 | > 128 | > 128 | > 128 | > 128 | > 128 | > 128 | 2 µg/mL (≈ 1.33 µM) | 2 µg/mL (≈ 1.33 µM) | 2 µg/mL (≈ 1.33 µM) | 2 µg/mL (≈ 1.33 µM) | .5 µg/mL (≈ 0.332 µM) | 2 µg/mL (≈ 1.33 µM) | 2 µg/mL (≈ 1.33 µM) | 2 µg/mL (≈ 1.33 µM) | 2 µg/mL (≈ 1.33 µM) | 2 µg/mL (≈ 1.33 µM) | 4.10 | 2.38 | ED50 (Streptococcus pneumoniae): 3.76 mg/kg/2
CNC(CC(C)C)C(=O)NC1C(=O)NC(CC(N)=O)C(=O)NC2C(=O)NC3C(=O)NC(C(=O)NC(C(=O)O)c4cc(O)cc(O)c4-c4cc3ccc4O)C(OC3CC(C)(NCc4ccccc4)C(O)C(C)O3)c3ccc(cc3)Oc3cc2cc(c3O)Oc2ccc(cc2Cl)C1O (stereo not drawn) [Compound 73] | > 128 | > 128 | > 128 | > 64 | > 128 | > 128 | > 128 | > 128 | 1 µg/mL (≈ 0.745 µM) | 1 µg/mL (≈ 0.745 µM) | 1 µg/mL (≈ 0.745 µM) | 2 µg/mL (≈ 1.49 µM) | .25 µg/mL (≈ 0.186 µM) | 1 µg/mL (≈ 0.745 µM) | 1 µg/mL (≈ 0.745 µM) | 1 µg/mL (≈ 0.745 µM) | 1 µg/mL (≈ 0.745 µM) | 2 µg/mL (≈ 1.49 µM) | > 8.0 | 7.30 | ED50 (Streptococcus pneumoniae): > 8.0 mg/kg/2
CNC(CC(C)C)C(=O)NC1C(=O)NC(CC(N)=O)C(=O)NC2C(=O)NC3C(=O)NC(C(=O)NC(C(=O)O)c4cc(O)cc(O)c4-c4cc3ccc4O)C(OC3CC(C)(NCc4ccccc4)C(O)C(C)O3)c3ccc(c(Cl)c3)Oc3cc2cc(c3OC2OC(CO)C(O)C(O)C2O)Oc2ccc(cc2Cl)C1O (stereo not drawn) [Compound 76] | > 128 | > 128 | > 128 | > 128 | > 128 | > 128 | > 128 | > 128 | .25 µg/mL (≈ 0.162 µM) | .25 µg/mL (≈ 0.162 µM) | .25 µg/mL (≈ 0.162 µM) | .5 µg/mL (≈ 0.325 µM) | 2 µg/mL (≈ 1.3 µM) | .5 µg/mL (≈ 0.325 µM) | .25 µg/mL (≈ 0.162 µM) | 1 µg/mL (≈ 0.65 µM) | 1 µg/mL (≈ 0.65 µM) | 1 µg/mL (≈ 0.65 µM) | 0.87 | 0.62 | ED50 (Streptococcus pneumoniae): 0.42 mg/kg/2
